Experimental data from patent publication US12234504B1 (priority 2023, dated 2025).

Experiments:
[1] = test system: human DNA topoisomerase IIα; test: Agarose gel-based human DNA topoisomerase IIα mediated DNA cleavage assay; format: biochemical; details: 50 μM etoposide, increasing topoisomerase IIα, FIG. 8A
Method: (§1) FIGS. 8A-8C. […] Fluorescence intensity was measured using a Biotek microplate reader with excitation wavelength of 497 nm and emission wavelength of 525 nm.
DNA Gyrase and Human DNA Topoisomerase IIα Mediated DNA Cleavage Assay.
250 ng of relaxed plasmid pBR322 and 20 nM of E. coli DNA gyrase or human DNA topoisomerase IIα were mixed and incubated in 1×gyrase-mediated DNA cleavage buffer (20 mM Tris-HCl pH 8, 50 mM KAc, 10 mM MgCl2, 2 mM DTT, 1 mM ATP, 0.1 mg/mL BSA) at 37° C. for 15 minutes in the presence of an inhibitor or compound. After the incubation, 0.2% SDS and 0.1 mg/ml proteinase K were added to the reaction mixtures to trap the topoisomerase-inhibitor-DNA complex and digest the topoisomerase, respectively, by incubating for an additional 30 min at 37° C. DNA samples were analyzed in 1% agarose gel containing […] ethidium bromide in 1′TAE buffer and photographed under UV light. […] Etoposide was used as a positive control for human DNA topoisomerase IIα-mediated DNA cleavage assays.

[2] = test system: human DNA topoisomerase IIα; test: Fluorescence-based DNA cleavage assay for human DNA topoisomerase IIα (T5 exonuclease digestion, SYBR Green staining); format: biochemical; details: 50 μM etoposide, […] human TopoIIα, FIG. 8C
Method: as §1

fluorescence difference between presence and absence of compound (in words) [2]: significant fluorescence difference
Compound: COc1cc([C@@H]2c3cc4c(cc3[C@@H](O[C@@H]3O[C@@H]5CO[C@@H](C)O[C@H]5[C@H](O)[C@H]3O)[C@H]3COC(=O)[C@H]23)OCO4)cc(OC)c1O [etoposide]
linear and nicked plasmid DNA products (in words) [1]: progressive increase in the linear and nicked plasmid DNA products
